Consider one compound from patent US9650428B2, “Methods and compositions for treating cancer” (Roger Williams Hospital, priority 2014, dated 2017).

For this assay, the system named is U251MG glioma cells. In words: In vivo efficacy in athymic nude mice with subcutaneous U251MG glioma. To be noted: tumor-bearing mice; TMZ alone orally 64 mg/kg/day for 4 days, no T cells (Group III). On the procedure: The in vivo efficacy of the IL13E13K.R109K-2A-P140KMGMT construct was tested in mice using the viral particles generated as described in Example 2. Fifty athymic nude mice were injected subcutaneously (left flank) with U251MG glioma cells (40 mice; Groups I-IV) or PBS (10 mice). Four days after glioma implantation, 3 groups of mice (Groups I, II and III, 10 mice/group) were treated orally with TMZ (64 mg/kg/day by oral gavage) for 4 days. On the 5th day after glioma implantation, the 3 groups of mice that had been treated orally with TMZ were treated as follows: Group I: an intra-tumoral injection of the IL13E13K.R109KCAR-2A-P140KMGMT construct (TMZ-resistant); Group II: the IL13 IL13E13K.R109K construct with no MGMT (TMZ sensitive); Group III: treatment with PBS only (no injection of T cells). Group IV received no T cells or TMZ treatment. The mice were monitored for visual tumor growth, behavioral changes, and morbidity until day 90 after injection of the T cells at which time the mice were sacrificed as required by IACUC restrictions.

The compound `Cn1nnc2c(C(N)=O)ncn2c1=O` [TMZ, temozolomide] yielded a median survival time of 36 days and a survival rate of 20%.
